Reference: patent US20170217931A1, “COMPOUNDS FOR USE IN ANTHELMINTHIC TREATMENT” (Bayer Animal Health GMBH, priority 2014, published 2017)
Read-outs that look alike come from different tables or passages of the source.

Columns and labels:
[1] = Log P by HPLC on reversed phase columns, acidic range (EEC directive 79/831 Annex V.A8); format: physicochemical
Experimental: Measurement of Log P values was performed according to EEC directive 79/831 Annex V.A8 by HPLC (High Performance Liquid Chromatography) on reversed phase columns with the following methods: • [^a] Log P value is determined by measurement of LC-UV, in an acidic range, with 0.1% formic acid in water and acetonitrile as eluent (linear gradient from 10% acetonitrile to 95% acetonitrile). • [^b] Log P value is determined by measurement of LC-UV, in a neutral range, with 0.001 molar ammonium acetate solution in water and acetonitrile as eluent (linear gradient from 10% acetonitrile to 95% acetonitrile).
Calibration was done with straight-chain alkan-2-ones (with 3 to 16 carbon atoms) with known Log P values (measurement of Log P values using retention times with linear interpolation between successive alkanones). Lambda-max-values were determined using UV-spectra from 200 nm to 400 nm and the peak values of the chromatographic signals.

Cooperia curticei = test: microbe, parasite or virus in culture; format: cell-based; settings: 120 h, read-out: activity (larval mortality)
Experimental: (§1) To produce a suitable preparation of active compound, 10 mg of active compound are dissolved in 0.5 ml dimethyl sulfoxide, and the concentrate is diluted with “Ringer's solution” to the desired concentration.
Approximately 40 nematode larvae (Cooperia curticei) are transferred into a test tube containing the compound solution. After 5 days percentage of larval mortality is recorded. 100% efficacy means all larvae are killed; 0% efficacy means no larvae are killed.

Haemonchus contortus = test: microbe, parasite or virus in culture; format: cell-based; settings: 120 h, read-out: activity (larval mortality)
Experimental: as §1
Approximately 40 larvae of the red stomach worm (Haemonchus contortus) are transferred into a test tube containing compound solution. After 5 days percentage of larval mortality are recorded. 100% efficacy means all larvae are killed, 0% efficacy means no larvae are killed.

[2] = reversed phase HPLC columns; LC-UV, acidic range, 0.1% formic acid in water and acetonitrile; read-out: logP a) (HCOOH)
[3] = 4 ppm, after 5 days, Cooperia curticei larvae
[4] = 20 ppm, after 5 days, Cooperia curticei larvae
[5] = 20 ppm, after 5 days, Haemonchus contortus larvae

Row | chromatographic logP [1, 2] | SMILES | chromatographic logP ([1]; LC-UV, acidic range, 0.1% formic acid in water and acetonitrile; read-out: logP a) (HCOOH)) | mortality at 4 ppm (Cooperia curticei; Cooperia curticei) [%] | mortality at 20 ppm (Cooperia curticei; Cooperia curticei) [%] | mortality at 4 ppm (Cooperia curticei; [3]) [%] | mortality at 20 ppm (Cooperia curticei; [4]) [%] | mortality at 20 ppm (Haemonchus contortus; [5]) [%] | chromatographic logP [1] | mortality at 20 ppm (Haemonchus contortus; Haemonchus contortus) [%]
1 | 3.27 | O=C(NCC(F)(F)c1ncc(-n2ccc(C(F)(F)F)n2)cc1Cl)c1cccnc1C(F)(F)F [Example 13] | – | – | – | ≥ 90 | 100 | – | – | –
2 | 3.24 | O=C(NCC(F)(F)c1ncc(-n2cc(C(F)(F)F)cn2)cc1Cl)c1cccnc1C(F)(F)F [Example 14] | – | – | – | ≥ 90 | 100 | 100 | – | –
3 | 3.1 | O=C(NCC(F)(F)c1ncc(-c2cnn(CC(F)(F)F)c2)cc1Cl)c1ccccc1C(F)(F)F [Example 15] | – | – | – | ≥ 90 | 100 | – | – | –
4 | 2.66 | O=C(NCC(F)(F)c1ncc(-c2cnn(CC(F)(F)F)c2)cc1Cl)c1cccnc1C(F)(F)F [Example 16] | – | – | – | – | 100 | – | – | –
5 | 2.85 | O=C(NCC(F)(F)c1ncc(-c2cnn(CC(F)(F)F)c2)cc1Cl)c1nccnc1C(F)(F)F [Example 17] | – | – | – | – | 100 | – | – | –
6 | 3.07 | O=C(NCC(F)(F)c1ncc(-n2cc(Cl)cn2)cc1Cl)c1cccnc1C(F)(F)F [Example 18] | – | – | – | ≥ 90 | 100 | 100 | – | –

The remaining lines, values behind:

Row | SMILES | chromatographic logP [1, 2] | chromatographic logP ([1]; LC-UV, acidic range, 0.1% formic acid in water and acetonitrile; read-out: logP a) (HCOOH)) | mortality at 4 ppm (Cooperia curticei; Cooperia curticei) [%] | mortality at 20 ppm (Cooperia curticei; Cooperia curticei) [%] | mortality at 4 ppm (Cooperia curticei; [3]) [%] | mortality at 20 ppm (Cooperia curticei; [4]) [%] | mortality at 20 ppm (Haemonchus contortus; [5]) [%] | chromatographic logP [1] | mortality at 20 ppm (Haemonchus contortus; Haemonchus contortus) [%]
7 | O=C(NCC(F)(F)c1ncc(-c2ccoc2)cc1Cl)c1ccccc1C(F)(F)F [Example 1] | – | 3.21 | ≥ 90 | 100 | – | – | – | – | –
8 | Cc1occc1-c1cnc(C(F)(F)CNC(=O)c2ccccc2C(F)(F)F)c(Cl)c1 [Example 2] | 3.53 | – | – | – | ≥ 90 | 100 | 90 | – | –
9 | O=C(NCC(F)(F)c1ncc(-n2cc(C(F)(F)F)cn2)cc1Cl)c1ccccc1C(F)(F)F [Example 3, N-[2-[3-chloro-5-[4-(trifluoromethyl)pyrazol-1-yl]-2-pyridyl]-2,2-difluoro-ethyl]-2-(trifluoromethyl)benzamide] | – | – | ≥ 90 | 100 | – | – | – | 3.62 | 100
10 | Cn1ccc(-c2cnc(C(F)(F)CNC(=O)c3ccccc3C(F)(F)F)c(Cl)c2)c1 [Example 4] | 3.22 | – | – | – | ≥ 90 | – | – | – | –
11 | O=C(NCC(F)(F)c1ncc(-n2cc(F)cn2)cc1Cl)c1ccccc1C(F)(F)F [Example 5] | 3.12 | – | – | – | ≥ 90 | 100 | 90 | – | –
12 | Cn1c(C(F)(F)F)nn(-c2cnc(C(F)(F)CNC(=O)c3ccccc3C(F)(F)F)c(Cl)c2)c1=O [Example 6] | – | – | ≥ 90 | 100 | – | – | – | 3.32 | 100
13 | O=C(NCC(F)(F)c1ncc(-n2cc(F)cn2)cc1Cl)c1nccnc1C(F)(F)F [Example 7] | 2.88 | – | – | – | – | – | – | – | –
14 | O=C(NCC(F)(F)c1ncc(-n2ccc(C(F)(F)F)n2)cc1Cl)c1nccnc1C(F)(F)F [Example 8] | – | – | ≥ 90 | 100 | – | – | – | 3.49 | –
15 | O=C(NCC(F)(F)c1ncc(-n2cc(F)cn2)cc1Cl)c1cccnc1C(F)(F)F [Example 9] | 2.7 | – | – | – | ≥ 90 | 100 | – | – | –
16 | O=C(NCC(F)(F)c1ncc(-n2cc(C(F)(F)F)cn2)cc1Cl)c1nccnc1C(F)(F)F [Example 10] | 3.43 | – | – | – | ≥ 90 | 100 | 100 | – | –
17 | O=C(NCC(F)(F)c1ncc(-n2ccc(C(F)(F)F)n2)cc1Cl)c1ccccc1C(F)(F)F [Example 11] | – | – | ≥ 90 | 100 | – | – | – | 3.63 | 100
18 | O=C(NCC(F)(F)c1ncc(-n2cc(Cl)cn2)cc1Cl)c1ccccc1C(F)(F)F [Example 12] | – | – | ≥ 90 | 100 | – | – | – | 3.5 | 100
